{
  "source": "patent US20100047227A1",
  "about": "“NOVEL ANTICANCER CATHEPSIN FORMULATIONS AND ANTICANCER AGENT FOR USE IN COMBINED ANTICANCER THERAPY” (priority 2006, published 2010)",
  "key": {"FasL": {"test_system": "FasL", "assay": "ELISA of FasL in culture supernatant of ALVA-41 cells", "format": "cell-based, human", "settings": "ALVA-41 cells treated with cathepsin E 100 μg/ml, 20 hours", "procedure": "(§1) ALVA-41 cells (1×10^6 cells per a 6-cm dish) were incubated together with cathepsin E (100 μg/ml) in a non-serum culture medium Opti-MEM at 37° C. for 20 hours. The resulting culture supernatant was measured for amounts of TRAIL, FasL and TNF-α with ELSA kit in a manner as will be described briefly. A sample and a standard product (each 100 μl) were added to a microtiter plate immobilized with a monoclonal antibody to the corresponding member of the TNF family and incubated at room temperature for 2 hours. Then, the wells of the microtiter plate were washed four times with a washing buffer and 100 μl of biotin-conjugated monoclonal antibody was added to each wells of the plate, following by incubation at room temperature for 1 hour and washing the wells of the plate completely. Then, they were incubated together with 100 μl of streptoavidin-conjugated horseradish peroxidase at room temperature for 30 minutes and washed four times with a washing buffer. […] After an addition of a reaction terminating solution, the wells were measured at 450 nm with microreader.\n(§2) In this experiment, the ALVA-41 cells were treated with cathepsin E (100 μg/ml) or physiological saline at 37° C. and pH 7.4 for 20 hours and measured for the amounts of TNF-α, FasL and TRAIL in the culture supernatant by ELSA. […] Apoptosis of the ALVA-41 cells was measured using the culture supernatant after immunoprecipitation. […]"}, "[1]": {"test_system": "human prostate cancer ALVA-41 cells", "assay": "measurement for apoptosis (morphology, annexin V staining, TUNEL assay), ALVA-41 cells", "format": "cell-based", "settings": "ALVA-41 cells", "procedure": "The cells were measured for a morphological variation of apoptosis by phase contrast microscopy. The cells of prophase and post-phase apoptosis were detected by annexin V staining and TUNEL assay. In order to carry out the annexin V staining of ALVA-41 cells, the cells were exposed to cathepsin E or cathepsin L for 4 hours and centrifuged. After centrifugation, the separated cells were washed twice with PBS and incubated with fluorescein isothiocyanate-conjugated annexin V for 10 minutes at room temperature in a dark place. The cells that were positive as a result of the annexin V staining were then detected with fluorescence microscope. The TUNEL assay was carried out for the incubated tumor cells using Apop Tag Peroxidase Apoptosis Detection Kit and for heterografts using Tumor TACS In Situ Apoptosis Detection Kit.\nIn the figure, an indicating bar scale represents 50 μm. […] In the figure, an indicating bar scale represents 50 μm."}, "[2]": {"test_system": "various human prostate cancer cell lines", "assay": "sensitivity of human prostate cancer cell lines to cathepsin E-induced apoptosis", "format": "cell-based", "procedure": "The survival rate of cells was measured by Cell Counting Kit-8 in accordance with a manufacturer's manual. The method will be described briefly as follows. A 96-well (each 100 μl) plate was inoculated with cells (1×10^4 cells) and incubated for 24 hours, and the cells were incubated in a non-serum culture medium Opti-MEM together with a given concentration of each cathepsin purified from rat stomach (References #27 and #60-#62). Thereafter, the kit reagent (10 μl) was added to each well and the wells were incubated for another 1 hour. After incubation, each well was measured at the absorbance of 450 nm with a microplate reader.\nIn this assay, the cells to be tested were incubated to a ˜80% confluent state and then together with cathepsin E (100 μg/ml) or physiological saline at 37° C. and pH 7.4 for 20 hours, followed by measurements for the cell survival rate by a colorimetric assay. The cell survival rate is represented as a percentage of a corresponding value to the cells treated with physiological saline, and the data is represented as an average value±SD from the data obtained by four separate experiments. In this value, *p<0.001 represents a corresponding value to the cells treated with physiological saline. […] In this experiment, the cells were biotinylated with sulfo-NHS-SS-biotin as a […], decomposable reagent and lyzed, and the resulting cell lysate was incubated with streptoavidin-agarose beads at 4° C. for 2 hours. After the beads were washed, the related proteins were subjected to an immunoblot analysis using an anti-TRAIL antibody or an antibody to a TRAIL membrane-related receptor. The cell lysate portion was also subjected to a direct immunoblot analysis using an anti-β-actin antibody. As an alternative method, a culture medium of each cell line was immunoblot-analyzed using an anti-OPG antibody. […] Thereafter, the immunoblot was analyzed for its concentration in order to determine a quantity of a soluble TRAIL trimer. […]"}, "TNF-α": {"test_system": "TNF-α", "assay": "ELISA of TNF-α in culture supernatant of ALVA-41 cells", "format": "cell-based, human", "settings": "ALVA-41 cells treated with cathepsin E 100 μg/ml, 20 hours", "procedure": "as §1, §2"}},
  "data": [
    {"substance": "cathepsin E", "values": [
      {"measurement": "FasL in culture supernatant", "setting": "FasL", "result": "little detected"},
      {"measurement": "staining with annexin V and TUNEL reagent", "setting": "[1]; 50 μg/ml", "result": "positive"},
      {"measurement": "morphological changes of treated cells", "setting": "[1]; microscopy, 100 μg/ml", "result": "morphological features of apoptosis"},
      {"measurement": "induction of apoptosis in human prostate cancer cell lines", "setting": "[2]; 100 μg/ml, 37° C., pH 7.4, 20 hours", "result": "induced apoptosis for all cells"},
      {"measurement": "sensitivity as to cell survival effect, PC-3 cells relative to PPC-1 cells", "setting": "[2]; PC-3 versus PPC-1", "result": "approximately 20 times"},
      {"measurement": "order of increasing sensitivity of cell lines to cathepsin E-induced apoptosis", "setting": "[2]; PPC-1, DU145, ALVA-41, PC-3", "result": "PPC-1<DU145≦ALVA-41<PC-3"},
      {"measurement": "TNF-α in culture supernatant", "setting": "TNF-α", "result": "little detected"}
    ]}
  ]
}
